Several values for one entry are separate records, joined by “and”; a condition that tells them apart may be missing. Identical values can stand only once.
What was measured:
Assay type in all cases: functional
Mus musculus [1] = assay: Tested for hypoxic survival test by 100 mg/kg intraperitoneal administration and percent survival of mice was reported.; settings: ip
Mus musculus [2] = assay: Attenuation of anoxic-induced amnesia in mice treated with 100 mg/kg compound administered intraperitoneally was determined; 153-209; settings: route intraperitoneal
Mus musculus [3] = assay: Survival of mice after intraperitoneal administration of 50 mg/kg compound by using hypoxic survival test was determined; settings: ip
Mus musculus [4] = assay: (§1) Attenuation of anoxic-induced amnesia in mice treated with 100 mg/kg compound administered intraperitoneally was determined; settings: route intraperitoneal
Mus musculus [5] = assay: as §1; settings: route intraperitoneal; remark: listed apart in the source
Mus musculus [6] = assay: Survival of mice after intraperitoneal administration of 100 mg/kg compound by using hypoxic survival test was determined; settings: ip
Mus musculus [7] = assay: Attenuation of anoxic-induced amnesia in mice treated with 10 mg/kg compound administered intraperitoneally was determined; settings: route intraperitoneal
Mus musculus [8] = assay: Attenuation of anoxic-induced amnesia in mice treated with 25 mg/kg compound administered intraperitoneally was determined; settings: route intraperitoneal
Mus musculus [9] = assay: Tested for hypoxic survival test by 0.125 mg/kg intraperitoneal administration and percent survival of mice was reported; Value ranges from 60-80; settings: ip
Mus musculus [10] = assay: Attenuation of anoxic-induced amnesia in mice treated with 0.1 mg/kg compound administered intraperitoneally was determined; settings: route intraperitoneal

Structure (SMILES): CCNc1nc(=O)c2cnn3c2n1CC=C3c1ccccc1
- survival at 100 mg/kg (Mus musculus [1]): 73%

Structure (SMILES): CC(C)Nc1nc(=O)c2cnn3c2n1CC=C3c1ccccc1
- survival at 100 mg/kg (Mus musculus [1]): 20%

Structure (SMILES): CC(C)CNc1nc(=O)c2cnn3c2n1CC=C3c1cccc(C(F)(F)F)c1
- Improvement (Mus musculus [2]): 209%
- survival at 50 mg/kg (Mus musculus [3]): 50%
- Latency (Mus musculus [4]): 218 s
- Latency (Mus musculus [5]): 51 s

Structure (SMILES): CCCCNc1nc(=O)c2cnn3c2n1CC=C3c1cccc(C(F)(F)F)c1
- survival at 100 mg/kg (Mus musculus [6]): 58%

Structure (SMILES): CC(C)CNc1nc(=O)c2cnn3c2n1CC=C3c1ccccc1
- survival at 100 mg/kg (Mus musculus [1]): 30%

Structure (SMILES): CC(C)Nc1nc(=O)c2cnn3c2n1CC=C3c1cccc(C(F)(F)F)c1
- survival at 100 mg/kg (Mus musculus [6]): 15%

Structure (SMILES): CNc1nc(=O)c2cnn3c2n1CC=C3c1ccccc1
- survival at 100 mg/kg (Mus musculus [1]): 95%

Structure (SMILES): CCNc1nc(=O)c2cnn3c2n1CC=C3c1cccc(C(F)(F)F)c1
- survival at 100 mg/kg (Mus musculus [6]): 65%

Structure (SMILES): Nc1nc(=O)c2cnn3c2n1CC=C3c1cccc(C(F)(F)F)c1
- Latency (Mus musculus [7]): 102 s
- survival at 100 mg/kg (Mus musculus [1]): 68%
- Improvement (Mus musculus [5]): 20%
- Latency (Mus musculus [5]): 180 s

Structure (SMILES): CCCCNc1nc(=O)c2cnn3c2n1CC=C3c1ccccc1
- Improvement (Mus musculus [8]): 67%
- Latency (Mus musculus [8]): 127 s and 132 s
- survival at 100 mg/kg (Mus musculus [1]): 70%

Structure (SMILES): CNC(=O)Oc1ccc2c(c1)[C@]1(C)CCN(C)[C@@H]1N2C [PHYSOSTIGMINE]
- survival at 0.125 mg/kg (Mus musculus [9]): 60%
- Improvement (Mus musculus [10]): 36%
